Assays:
[1] = test system: existing sprouts on post-dormant potatoes with peeps and sprouts extant; experiment: Comparison of thermofogged sprout suppressing chemicals for "burn" of existing sprouts (Example IV); type: in vivo; set-up: key to Burn “old” / Burn “new”: +: indicates fair effectiveness; ++: indicates good effectiveness; +++: indicates excellent effectiveness; A minus (−) sign indicates no noticeable effect; a +/− sign indicates only partial effectiveness at a minimal level; details: for Burn “new”: newly emerged sprouts and peeps, generally less than a month; for Burn “new” / Burn “old”: thermofogged at comparable dosages; for Burn “old”: effect upon old sprouts, up to nine months old
Description: Various sprout suppressing chemicals were compared for their ability to suppress existing sprouts on post-dormant potatoes with peeps and sprouts extant. […] Clove oil applied at a predetermined dosage gave a “burn” effectiveness of 46% of existing peeps while 1-nonanol at a dosage one-fourth as great gave a 50% “burn.” At a one-half dosage, 1-nonanol provided a 100% “burn” effectiveness within 24 hours after treatment. In the above table “Burn old” refers to the effect upon old sprouts, which included sprouts up to nine months old, these being generally more difficult to desiccate, while “burn new” refers to newly emerged sprouts and peeps, generally less than a month or so in existence.

[2] = test system: peeps and sprouts on stored potatoes; experiment: Thermofog treatment of stored potatoes with 1-nonanol to determine sprout destruction (Example II); type: in vivo
Description: Stored potatoes in a small open container were treated with 1-nonanol (n-nonyl alcohol) via a thermofogger to determine sprout destruction. The thermofogger was operated at an aerosol chamber temperature of about 500° F. A good stable aerosol was produced. The alcohol was applied at a dosage of 8 ml for 2 kg of potatoes. The system was open so that the actual dosage reaching the potatoes was considerably less than the fogged amount. The potatoes were exposed to the thermofog for approximately one minute, after which the treatment containers (1-gallon bottles) were sealed and held at 53° F. for 24 hours before being connected to normal storage ventilation. In a first test the potatoes had white “peeps” showing from the eyes before treatment. […] In a second test the potatoes were treated with 1-nonanol at the same fogging temperature and dosage for the same period of time to achieve the same application dosage as in Example I. The potatoes in this storage had sprouts averaging in excess of about 2 cm in length. In this experiment, potatoes with very long sprouts, some up to eight cm or more, were treated with 1, 2, and 4 times sequentially with full strength nonanol. […] This “spray-paint” method was thus used to try to bring the total amount (rate) of nonanol up to a level capable of killing large sprouts as well as peeps, a necessity in commercial settings where sprouts of all sizes exist. It required 4 applications to reach the level at which these large sprouts were completely killed. […] While this was a small scale test, a whole storage full of potatoes in this condition would likely lead to secondary decays. Single or even double applications didn't reach a level of nonanol high enough to completely kill these large-sized sprouts.

peeps and sprouts = experiment: Fogging of 1-nonanol versus clove oil, "burning" peeps and sprouts (Example III); type: in vivo, potatoes; details: short duration, similar dosages
potatoes = experiment: 1-octanol thermofog on cold versus 53° F. potatoes, condensation damage (Example V); type: in vivo
Description: An experiment was performed wherein 1-octanol at various dosages were applied to potatoes wherein the temperature of the potatoes was at about 36° F. The 1-octanol was applied via an electric thermofogger at a fog temperature within the fogger of about 500° F. to obtain a stable aerosol. The potatoes were examined about 24 hours after treatment. […] The potatoes were cut open at the dark spots. Damage to the flesh of the potatoes existed to a depth of about 5 mm to 25 mm. Potato flesh was otherwise undamaged except under the dark spots.

stored potatoes = details: continuous vapors by wicking over an extended period; cited from earlier work

SMILES: CCCCCOC(C)=O [AmylAcetate, reference compound]
- Burn “new” [1]: ++

SMILES: CCCCCCO [Hexanol]
- Burn “old” [1]: +
- Burn “new” [1]: ++

SMILES: CCCCCCCCCCO [1-Decanol, 1-decanol]
- Burn “old” [1]: ++
- Burn “new” [1]: ++

SMILES: CCCCCCCCCO [1-Nonanol, 1-nonanol]
- “burn” effectiveness of existing peeps ([1]; dosage one-fourth as great as the clove oil dosage): 50%
- Burn “old” [1]: +++
- Burn “new” [1]: +++
- “burn” effectiveness of existing peeps ([1]; one-half dosage, within 24 hours after treatment): 100%
- effect on white “peeps” ([2]; first test, 8 ml for 2 kg of potatoes fogged, open system, inspected about 24 hours after treatment): burned to a dark color and were inactivated
- damage to potato flesh adjacent the eyes ([2]; first test, about 24 hours after treatment): without any damage to potato flesh adjacent the eyes
- negative side effect observed ([2]; second test, 4 applications on large sprouts): wet, slimy, sprout rot
- applications required to completely kill large sprouts ([2]; second test, sprouts up to eight cm or more, sequential full strength applications): 4 applications
- effectiveness in “burning” peeps and sprouts relative to clove oil (peeps and sprouts): about four times as effective as clove oil

SMILES: CCCCCCCCO [1-Octanol, 1-octanol]
- Burn “old” [1]: ++
- Burn “new” [1]: +++
- depth of damage to the flesh at the dark spots (potatoes; potato, in vivo, 24 h): 5-25 mm
- condition of potato skin (potatoes; potatoes at about 36° F., examined about 24 hours after treatment): large dark damaged spots
- injury to potato skin or flesh (potatoes; potatoes held at 53° F., similar dosage, fogging temperature and rate): did not show injury to the potato skin or to its flesh

SMILES: CCCCCCCCCCCCO [Dodecanol]
- Burn “old” [1]: −\+
- Burn “new” [1]: −

SMILES: CC(CCO)CC(C)(C)C (centres unmarked) [3,5,5-trimethyl hexanol]
- damage to potato flesh (stored potatoes): damaged potato flesh, especially near affected eyes
- effect on existing sprouts (stored potatoes): strongly “burned” (desiccated) existing sprouts

Source: patent US20140200142A1, “TREATMENT OF STORED TUBERS WITH AEROSOLS OF HIGHER ALCOHOLS” (1,4 Group, Inc., priority 2013, published 2014)
